Results: US20100216795A1, “TNIK INHIBITOR AND THE USE” (priority 2008, published 2010)

Biological target: T1, human TNIK (N-terminal segment, TNIK_N) (Homo sapiens, UniProt Q9UKE5)
T1 construct: made in house; host or cells: Sf21 insect cells (baculovirus)
Test: TNIK kinase assay (mobility shift)
Format: biochemical
Conditions: 25 μM ATP, 1 h at room temperature
Text: A cDNA encoding the N-terminal segment (TNIK_N, residues 1-314) containing the kinase domain of human TNIK (NM_015028.1) was amplified from cDNA mixture synthesized from human tissue (Biochain) by PCR using the following primers: 5′-[…]-3′ ([SEQ ID NO:1]: forward primer, the underlined nucleotides indicates the location of a EheI site); 5′-[…]-3′ ([SEQ ID NO:2]: reverse primer, the underlined nucleotides indicates the location of a NotI site). The cDNA was subcloned into baculovirus transfer vector pFastBac_GSTb that includes protease cleavage site and glutathione S-transferase purification tag (GST-tag). The plasmid was purified and the insertion of the pFastBac_GSTb-TNIK_N was confirmed by DNA sequencing. Then E. coli DH10Bac competent cells were transformed with the plasmid to prepare the recombinant bacmid according to the instructions for the Bac-to-Bac™ baculovirus expression systems (Invitrogen). The Sf9 cells were transfected with the recombinant bacmid containing pFastBac_GSTb-TNIK_N using Cellfectin Reagent (Invitrogen) in SF-900II serum free media (Invitrogen). The viral supernatant was collected from the medium 72 h after transfection. The virus was amplified three times by infecting actively growing Sf9 or Sf21 cells in Grace's insect media (Invitrogen) supplemented with 10% FCS and an antibiotic-antimycotic reagent (Invitrogen) for 72 h at 27° C. in T-flask or roller bottles. The titer of amplified TNIK_N virus was estimated at 2.36×10^8 pfu/ml by using BacPAK™ Baculovirus Rapid Titer kit (Clontech).
Log-phase Sf21 cells (2×10^6 cells/ml) in the Grace's insect media were infected with the recombinant baculovirus at MOI of 3.0 and incubated in roller bottles (250 ml media per bottle) for 72 h at 27° C., after which, the cells were collected by centrifugation, and the cell pellet washed with cold PBS and kept at −80° C. until purification. The following purification procedures were carried out at 4° C. The frozen cells were thawed on ice and lysed in lysis buffer (50 mM Tris-HCl, pH 7.5, 150 mM NaCl, 1% Nonidet P-40, 5 mM DTT, 0.5 mM EDTA, 0.5 mM EGTA) supplemented with 1 mM phenylmethansulfonylfluoride, 2 μg/ml leupeptin, 2 μg/ml aprotinin, 1 mM NaF, 100 μM sodium orthovanadate, and 1 μM cantharidin by sonication. The suspended lysate was cleared by centrifugation at 9000 g for 20 min and the supernatant was incubated for 1 h with glutathione Sepharose beads (GE Healthcare). The beads were suspended in buffer-H (50 mM Tris-HCl, pH 7.5, 1 M NaCl, 1 mM DTT, 0.5 mM EDTA, 0.5 mM EGTA and 0.05% Brij35) and washed with buffer-H followed by buffer-L (50 mM Tris-HCl, pH 7.5, 150 mM NaCl, 1 mM DTT, 0.5 mM EDTA, 0.5 mM EGTA, 0.05% Brij35) in an Econo-pack column (BIO-RAD). The bound TNIK_N was eluted with elution buffer (50 mM Tris-HCl, pH 8.0, 150 mM NaCl, 1 mM DTT, 10% glycerol, 0.5 mM EDTA, 0.5 mM EGTA and 5 mM reduced glutathione). The eluted fractions were collected and determined the protein concentration by Bradford reagent (BIO-RAD). The TNIK_N fractions were pooled and desalted using 10DG column (BIORAD) equilibrated with the storage buffer (50 mM Tris-HCl, pH 7.5, 150 mM NaCl, 1 mM DTT, 10% glycerol, 0.05% Brij35). The purified TNIK_N was characterized by electrophoresis using 4-20% polyacrylamide gels and matrix-assisted laser desorption/ionization reflection time-of-flight (MALDI-TOF) mass spectrometry on a Voyager-DE RP MALDI/TOF (Applied Biosystems). TNIK_N was confirmed by the molecular weight and MASCOT Peptide Mass Fingerprint.
The kinase assays were conducted in a 20 μl volume using 384-well plates (Greiner). The reaction mixture consists of compound or vehicle (1% DMSO), 0.08 ng/μl TNIK_N, 1 μM FITC-labeled substrate peptides, FITC-x-Lys-Tyr-Lys-Thr-Leu-Arg-Gln ([SEQ ID NO.3], x: ε-aminocaproic acid), 20 mM Hepes, pH 7.5, 0.01% Triton X-100, 5 mM MgCl2, 25 μM ATP and 2 mM DTT. As blank, TNIK_N was excluded from the reaction mixture of vehicle (1% DMSO). […]

T1 sequence (Q9UKE5 1-314): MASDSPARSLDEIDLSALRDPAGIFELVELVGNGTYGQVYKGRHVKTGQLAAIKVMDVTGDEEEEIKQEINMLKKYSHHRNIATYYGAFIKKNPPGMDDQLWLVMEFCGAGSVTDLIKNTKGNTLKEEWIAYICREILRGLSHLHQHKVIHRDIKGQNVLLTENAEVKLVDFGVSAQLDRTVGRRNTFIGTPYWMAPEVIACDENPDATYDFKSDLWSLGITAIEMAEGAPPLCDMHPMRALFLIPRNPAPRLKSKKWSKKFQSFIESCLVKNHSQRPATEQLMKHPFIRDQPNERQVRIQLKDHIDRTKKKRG

| SMILES | IC50 |
| --- | --- |
| Cc1cccc(C(=O)Nc2sc(Nc3ccccc3)nc2C(N)=O)c1 [Compound 2, 5-(3-methylbenzamido)-2-(phenylamino)thiazole-4-carboxamide] | 40 nM |
| COc1cccc(C(=O)Nc2sc(Nc3ccccc3)nc2C(N)=O)c1 [Compound 5, 5-(3-methoxybenzamido)-2-(phenylamino)thiazole-4-carboxamide] | 7700 nM |
| NC(=O)c1nc(Nc2ccccc2)sc1NC(=O)Cc1cccs1 [Compound 6, 2-(phenylamino)-5-(2-(thiophen-2-yl)acetamido)thiazole-4-carboxamide] | 280 nM |
| CC(C)CC(=O)Nc1sc(Nc2ccccc2)nc1C(N)=O [Compound 7, 5-(3-methylbutanamido)-2-(phenylamino)thiazole-4-carboxamide] | 180 nM |
| NC(=O)c1nc(Nc2ccccc2)sc1NC(=O)CC1CCCC1 [Compound 8, 5-(2-cyclopentylacetamido)-2-(phenylamino)thiazole-4-carboxamide] | 130 nM |
| Cc1ccc(Nc2nc(C(N)=O)c(NC(=O)c3ccccc3F)s2)cc1 [Compound 9, 2-(p-toluidino)-5-(2-fluorobenzamido)thiazole-4-carboxamide] | 68 nM |
| Cc1ccc(Nc2nc(C(N)=O)c(NC(=O)c3ccccc3Cl)s2)cc1 [Compound 11, 2-(p-toluidino)-5-(2-chlorobenzamido)thiazole-4-carboxamide] | 1700 nM |
| Cc1ccc(Nc2nc(C(N)=O)c(NC(=O)c3cccc(Br)c3)s2)cc1 [Compound 12, 2-(p-toluidino)-5-(3-bromobenzamido)thiazole-4-carboxamide] | 1700 nM |
| Cc1ccc(Nc2nc(C(N)=O)c(NC(=O)c3c(F)cccc3F)s2)cc1 [Compound 13, 2-(p-toluidino)-5-(2,6-difluorobenzamido)thiazole-4-carboxamide] | 180 nM |
| COc1ccc(C(=O)Nc2sc(Nc3ccc(C)cc3)nc2C(N)=O)cc1OC [Compound 14, 2-(p-toluidino)-5-(3,4-dimethoxybenzamido)thiazole-4-carboxamide] | 57 nM |
| CCC(CC)C(=O)Nc1sc(Nc2ccc(C)cc2)nc1C(N)=O [Compound 16, 2-(p-toluidino)-5-(2-ethylbutanamido)thiazole-4-carboxamide] | 4100 nM |
| CCNc1nc(C(N)=O)c(NC(=O)c2cc(-c3ccccc3)nc3c(C)cccc23)s1 [Compound 17, 2-(ethylamino)-5-(8-methyl-2-phenylquinoline-4-carboxamido)thiazole-4-carboxamide] | 3100 nM |

Compounds with a lower IC50, results first:

| IC50 | SMILES |
| --- | --- |
| 19 nM | NC(=O)c1nc(Nc2ccccc2)sc1NC(=O)c1ccccc1F [Compound 3, 5-(2-fluorobenzamido)-2-(phenylamino)thiazole-4-carboxamide] |
| 10 nM | COc1ccc(C(=O)Nc2sc(Nc3ccccc3)nc2C(N)=O)cc1 [Compound 4, 5-(4-methoxybenzamido)-2-(phenylamino)thiazole-4-carboxamide] |
| 14 nM | CC(=O)Nc1ccc(C(=O)Nc2sc(Nc3ccc(C)cc3)nc2C(N)=O)cc1 [Compound 10, 2-(p-toluidino)-5-(4-acetamidobenzamido)thiazole-4-carboxamide] |
| 31 nM | Cc1ccc(Nc2nc(C(N)=O)c(NC(=O)c3cccs3)s2)cc1 [Compound 15, 2-(p-toluidino)-5-(thiophene-2-carboxamido)thiazole-4-carboxamide] |
| 6 nM | Cc1ccc(C(=O)Nc2sc(Nc3ccccc3)nc2C(N)=O)cc1 [Compound A1, 5-(4-methylbenzamido)-2-(phenylamino)thiazole-4-carboxamide] |
| 17 nM | NC(=O)c1nc(Nc2ccccc2)sc1NC(=O)c1ccc(F)cc1 [Compound A2, 5-(4-fluorobenzamido)-2-(phenylamino)thiazole-4-carboxamide] |
| 18 nM | CC(=O)Nc1ccc(C(=O)Nc2sc(Nc3ccc(F)cc3)nc2C(N)=O)cc1 [Compound A4, 5-(4-acetamidobenzamido)-2-(4-fluorophenyl-amino)-thiazole-4-carboxamide] |
